Experimental data published in patent US9676715B2, “Bis-indolic derivatives, a process for preparing the same and their uses as a drug” (UNIVERSITE JOSEPH FOURIER, priority 2011, dated 2017).
Values after ≈ are worked out from the molar mass of the structure shown.

Columns and labels:
[1] = system: S. aureus CIP 65.25 (MRSA); assay: MIC, microdilution method (9.1); assay type: cell-based, Staphylococcus aureus; details: Staphylococcus aureus, read after 18 h, read-out: MIC
Outline: (§1)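 CLSI microdilution (M07-A8); MH broth; 5×10^5 CFU/ml final; 2-fold series 0.50-128 mg/L final; 37° C., ambient air.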

[2] = system: S. aureus ATCC 29213; assay: MIC, microdilution method (9.1); assay type: cell-based, Staphylococcus aureus; details: Staphylococcus aureus, ATCC29213, read after 18 h, read-out: MIC
Outline: as §1

[3] = system: S. aureus SA-1199B; assay: MIC, microdilution method (9.1); assay type: cell-based, Staphylococcus aureus; details: Staphylococcus aureus, SA1199B, 18 h
Outline: as §1

[4] = system: S. aureus ATCC 106414 (VISA); assay: MIC, microdilution method (9.1); assay type: cell-based, Staphylococcus aureus; details: Staphylococcus aureus, read after 18 h, read-out: MIC
Outline: as §1

[5] = system: S. aureus CIP 103428; assay: MIC, microdilution method (9.1); assay type: cell-based, Staphylococcus aureus; details: Staphylococcus aureus, CIP103428, read after 18 h, read-out: MIC
Outline: as §1

[6] = system: S. aureus ATCC 6538; assay: MIC, microdilution method (9.1); assay type: cell-based, Staphylococcus aureus; details: Staphylococcus aureus, ATCC6538, read after 18 h, read-out: MIC
Outline: as §1

[7] = system: S. epidermidis CIP 81.55; assay: MIC, microdilution method (9.1); assay type: cell-based, Staphylococcus epidermidis; details: Staphylococcus epidermidis, CIP81, read after 18 h, read-out: MIC
Outline: as §1

[8] = system: S. epidermidis ATCC 12228; assay: MIC, microdilution method (9.1); assay type: cell-based, Staphylococcus epidermidis; details: Staphylococcus epidermidis, ATCC12228, read after 18 h, read-out: MIC
Outline: as §1

[9] = system: S. epidermidis CIP 103627; assay: MIC, microdilution method (9.1); assay type: cell-based, Staphylococcus epidermidis; details: Staphylococcus epidermidis, CIP103627, read after 18 h, read-out: MIC
Outline: as §1

[10] = system: KB (human mouth carcinoma); assay: In vitro cytotoxicity; assay type: cell-based; details: read-out: % of cellular growth inhibition; for inhibition at 10 µM: 10^−5 M; for inhibition at 1 µM: 10^−6 M
Procedure: (§2) In vitro cytotoxicity was assayed on three cell lines—KB (human mouth carcinoma), MCR5 (human lung fibroblast) and HCT116 (human colon tumor). Results are presented in table IV as % of cellular growth inhibition in presence of 10^−5 M and 10^−6 M of the tested bis-indolic derivatives.

[11] = system: MRC5 (human lung fibroblast); assay: In vitro cytotoxicity; assay type: cell-based; details: read-out: % of cellular growth inhibition; for inhibition at 10 µM: 10^−5 M; for inhibition at 1 µM: 10^−6 M
Procedure: as §2

[12] = system: HCT116 (human colon tumor); assay: In vitro cytotoxicity; assay type: cell-based; details: read-out: % of cellular growth inhibition; for inhibition at 10 µM: HCT-116, 10^−5 M; for inhibition at 1 µM: HCT-116, 10^−6 M
Procedure: as §2

[13] = system: Serratia marcescens CIP 103551; assay: MIC, microdilution method (9.1); assay type: cell-based; details: CIP103551, 18 h
Outline: as §1

[14] = system: Klebsiella pneumoniae API ATCC 35657; assay: MIC, microdilution method (9.1); assay type: cell-based; details: ATCC35657, 18 h, read-out: MIC
Outline: as §1

[15] = system: Enterobacter cloacae ATCC13047; assay: MIC, microdilution method (9.1); assay type: cell-based; details: 18 h
Outline: as §1

[16] = system: Escherichia coli ATCC 25922; assay: MIC, microdilution method (9.1); assay type: cell-based; details: ATCC25922, 18 h
Outline: as §1

[17] = system: Acinetobacter baumanii ATCC 19606; assay: MIC, microdilution method (9.1); assay type: cell-based; details: Acinetobacter baumannii, ATCC19606, 18 h, read-out: MIC
Outline: as §1

[18] = system: Pseudomonas aeruginosa CIP 5933; assay: MIC, microdilution method (9.1); assay type: cell-based; details: CIP5933, 18 h, read-out: MIC
Outline: as §1

[19] = system: HCT116 (human colon tumor); assay: In vitro cytotoxicity; assay type: cell-based; details: HCT-116, HCT116, from 100 μM to 0.005 μM in DMSO, duplicate
[20] = system: S. mitis CIP 103335; assay: MIC, microdilution method (9.1); assay type: cell-based, Streptococcus mitis; details: Streptococcus mitis, CIP103335, 18 h, read-out: MIC
Outline: as §1

[21] = system: S. agalactiae (group B) ATCC 12400; assay: MIC, microdilution method (9.1); assay type: cell-based, Streptococcus agalactiae; details: Streptococcus agalactiae, ATCC12400, 18 h, read-out: MIC
Outline: as §1

[22] = system: E. faecalis ATCC 29212; assay: MIC, microdilution method (9.1); assay type: cell-based, Enterococcus faecalis; details: Enterococcus faecalis, ATCC29212, 18 h, read-out: MIC
Outline: as §1

[23] = system: E. faecium CIP 54.32; assay: MIC, microdilution method (9.1); assay type: cell-based, Enterococcus faecium; details: Enterococcus faecium, CIP54, 18 h, read-out: MIC
Outline: as §1

[24] = system: Listeria innocua CIP 80.11; assay: MIC, microdilution method (9.1); assay type: cell-based; details: CIP80, 18 h, read-out: MIC
Outline: as §1

[25] = system: Haemophilus influenzae ATCC 49766; assay: MIC, microdilution method (9.1); assay type: cell-based; details: ATCC49766; Haemophilus influenzae ATCC 49766; 10% sheep blood, 5% CO2; 18 h; read-out: MIC
Outline: (§3)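 Standard CLSI broth microdilution. Test range 0.50-128 mg/L (final), doubling steps.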

[26] = system: Bacillus subtilis CIP 5262; assay: MIC, microdilution method (9.1); assay type: cell-based; details: CIP5262, 18 h, read-out: MIC
Outline: as §1

[27] = system: S. pneumoniae ATCC 49619; assay: MIC, microdilution method (9.1); assay type: cell-based; details: Streptococcus pneumoniae, ATCC49619, 10% sheep blood, 5% CO2, 18 h
Outline: as §3

| Structure (SMILES) | MIC [1] | MIC [2] | MIC [3] | MIC [4] | MIC [5] | MIC [6] | MIC [7] | MIC [8] | MIC [9] | inhibition at 10 µM [10] | inhibition at 1 µM [10] | inhibition at 10 µM [11] | MIC [13] | MIC [14] | MIC [15] | MIC [16] | MIC [17] | MIC [18] | IC50 ([19]; first value) | IC50 ([19]; second value) | further results |
| --- | --- | --- | --- | --- | --- | --- | --- | --- | --- | --- | --- | --- | --- | --- | --- | --- | --- | --- | --- | --- | --- |
| CC(NC(=O)c1c[nH]c2ccc(Br)cc12)c1c[nH]c2ccc(Br)cc12 (stereo not shown) [Compound 4, 5-Bromo-N-(1-(5-bromo-1H-indol-3-yl)ethyl)-1H-indole-3-carboxamide] | 2 µg/mL (≈ 4.34 µM) | 2 µg/mL (≈ 4.34 µM) | 2 µg/mL (≈ 4.34 µM) | 2 µg/mL (≈ 4.34 µM) | 2 µg/mL (≈ 4.34 µM) | 2 µg/mL (≈ 4.34 µM) | 2 µg/mL (≈ 4.34 µM) | 2 µg/mL (≈ 4.34 µM) | 4 µg/mL (≈ 8.67 µM) | 13 ± 3% | 0% | 36 ± 4% | > 128 µg/mL | > 128 µg/mL | > 128 µg/mL | > 128 µg/mL | > 128 µg/mL | > 128 µg/mL | 6.43 µM | 10 µM | inhibition at 1 µM [11]: 7%; inhibition at 10 µM [12]: 12 ± 1%; inhibition at 1 µM [12]: 0% |
| CC(C)(C)OC(=O)NCC(NC(=O)c1c[nH]c2ccc(Br)cc12)c1c[nH]c2ccc(Br)cc12 (stereo not shown) [Compound 3f, tert-Butyl(2-(5-bromo-1H-indol-3-yl)-2-(5-bromo-1H-indolyl-3-carboxamido)ethyl)carbamate] | 2 µg/mL (≈ 3.47 µM) | 1 µg/mL (≈ 1.74 µM) | 2 µg/mL (≈ 3.47 µM) | 2 µg/mL (≈ 3.47 µM) | 1 µg/mL (≈ 1.74 µM) | 1 µg/mL (≈ 1.74 µM) | 2 µg/mL (≈ 3.47 µM) | 1 µg/mL (≈ 1.74 µM) | 1 µg/mL (≈ 1.74 µM) | 97 ± 1% | 0% | 91 ± 10% | > 128 µg/mL | > 128 µg/mL | > 128 µg/mL | > 128 µg/mL | > 128 µg/mL | > 128 µg/mL | 5.24 µM | 5.05 µM | MIC [20]: 64 µg/mL (≈ 111 µM); MIC [21]: 32 µg/mL (≈ 55.5 µM); MIC [22]: > 128 µg/mL; MIC [23]: > 128 µg/mL; inhibition at 1 µM [11]: 0%; inhibition at 10 µM [12]: 89 ± 9%; inhibition at 1 µM [12]: 0%; MIC [24]: > 128 µg/mL; MIC [25]: 32 µg/mL (≈ 55.5 µM); MIC [26]: 32 µg/mL (≈ 55.5 µM); MIC [27]: 32 µg/mL (≈ 55.5 µM) |
| Cn1cc(C(=O)NC(CNC(=O)OC(C)(C)C)c2c[nH]c3ccc(Br)cc23)c2cc(Br)ccc21 (stereo not shown) [Compound 7, tert-Butyl (2-(5-bromo-1-methyl-1H-indole-3-carboxamido)-2-(5-bromo-1H-indol-3-yl)ethyl) carbamate] | > 128 µg/mL | > 128 µg/mL | > 128 µg/mL | > 128 µg/mL | > 128 µg/mL | > 128 µg/mL | > 128 µg/mL | > 128 µg/mL | > 128 µg/mL | 52 ± 2% | 2% | 23 ± 6% | > 128 µg/mL | > 128 µg/mL | > 128 µg/mL | > 128 µg/mL | > 128 µg/mL | > 128 µg/mL | 10.1 µM | 13.1 µM | MIC [20]: > 128 µg/mL; MIC [21]: > 128 µg/mL; MIC [22]: > 128 µg/mL; MIC [23]: > 128 µg/mL; inhibition at 1 µM [11]: 12%; inhibition at 10 µM [12]: 35 ± 3%; inhibition at 1 µM [12]: 8%; MIC [24]: > 128 µg/mL; MIC [25]: > 128 µg/mL; MIC [26]: > 128 µg/mL; MIC [27]: > 128 µg/mL |
| NCCCCNC(=O)C(NC(=O)c1c[nH]c2ccc(Br)cc12)c1c[nH]c2ccc(Br)cc12 (stereo not shown) [Compound 16, N-(2-((4-Aminobutyl)amino)-1-(5-bromo-1H-indol-3-yl)-2-oxoethyl)-5-bromo-1H-indole-3-carboxamide] | 8 µg/mL (≈ 14.3 µM) | 8 µg/mL (≈ 14.3 µM) |  | 8 µg/mL (≈ 14.3 µM) | 8 µg/mL (≈ 14.3 µM) | 8 µg/mL (≈ 14.3 µM) | 8 µg/mL (≈ 14.3 µM) | 8 µg/mL (≈ 14.3 µM) | 8 µg/mL (≈ 14.3 µM) |  |  |  | > 32 µg/mL | > 32 µg/mL | 16 µg/mL (≈ 28.5 µM) | 16 µg/mL (≈ 28.5 µM) | > 32 µg/mL | 32 µg/mL (≈ 57 µM) | 52.9 µM | 42.8 µM | MIC [20]: > 128 µg/mL; MIC [21]: > 128 µg/mL; MIC [22]: > 128 µg/mL; MIC [23]: > 128 µg/mL; MIC [24]: > 128 µg/mL; MIC [25]: > 128 µg/mL; MIC [26]: > 128 µg/mL; MIC [27]: > 128 µg/mL |
